The values below come from US4472388A, “N-Methanesulfonic acid derivatives of 3-O-demethylistamycin B and production thereof” (Zaidan Hojin Biseibutsu Kagaku Kenkyu Kai, priority 1982, dated 1984).

The subject of data set [1] is Escherichia coli JR66/W677. The data set is described as follows: Minimum inhibitory concentration, serial dilution on Mueller-Hinton agar. As to conditions: for Minimum inhibitory concentration: Escherichia coli JR66/W677, Mueller-Hinton agar, 37° C., 17 hours. The format is cell-based. An excerpt:
(§1) Minimum inhibitory concentrations (mcg/ml) of the parent 3-O-demethylistamycin B were also estimated in the same manner for the comparison purpose and also are shown in Table 1.

The subject of data set [2] is Providencia Pv 16. Described as above. The format is cell-based. As to conditions: 17 hours; for Minimum inhibitory concentration: 37° C.
Description: as §1

The subject of data set [3] is Pseudomonas aeruginosa A3. The description is as above. Type of data set: cell-based. The following applies: for Minimum inhibitory concentration: Pseudomonas aeruginosa A3, Mueller-Hinton agar, 37° C., 17 hours.
Description: as §1

Data set [4] relates to Pseudomonas aeruginosa GN315. Described as above. Type of data set: cell-based. As to conditions: for Minimum inhibitory concentration: Pseudomonas aeruginosa GN315, Mueller-Hinton agar, 37° C., 17 hours.
Description: as §1

Data set [5] relates to Pseudomonas aeruginosa H9. The description is as above. The format is cell-based. As to conditions: 37° C., 17 hours.
Description: as §1

Data set [6] relates to Pseudomonas aeruginosa TI-13. The data set is described as above. As to conditions: for Minimum inhibitory concentration: Pseudomonas aeruginosa TI-13, Mueller-Hinton agar, 37° C., 17 hours. Type of data set: cell-based.
Description: as §1

For data set [7], the system named is Serratia marcescens. Described as above. Type of data set: cell-based. The following applies: for Minimum inhibitory concentration: Mueller-Hinton agar, 37° C., 17 hours.
Description: as §1

Data set [8] has as its system Staphylococcus aureus 209P. Described as above. As to conditions: 37° C., 17 hours. Type of data set: cell-based.
Description: as §1

The test system of data set [9] is Staphylococcus aureus Ap01. The description is as above. The format is cell-based. The following applies: 37° C., 17 hours.
Description: as §1

In data set [10] the test system is Escherichia coli K-12 LA290 R55. Described as above. The format is cell-based.
Description: as §1

Data set [11] has as its system Escherichia coli K-12 R5. The data set is described as above. The format is cell-based.
Description: as §1

For data set [12], the system named is Escherichia coli JR225. Described as above. The following applies: JR225, 17 h, read-out: Minimum inhibitory concentration. The format is cell-based.
Description: as §1

Data set [13] relates to Escherichia coli K-12 C600 R135. Described as above. The format is cell-based. As to conditions: K12C600R135, 37° C., 17 hours.
Description: as §1

For data set [14], the system named is Escherichia coli K-12 ML1629. Described as above. Type of data set: cell-based. The following applies: K12ML1629, 37° C., 17 hours.
Description: as §1

In data set [15] the test system is Escherichia coli K-12. The description is as above. The format is cell-based. The following applies: K12, 37° C., 17 hours.
Description: as §1

A short description of data set [16]: Acute toxicity, intravenous administration in mice. The format is in vivo. The following applies: ICR mice. The procedure:
A test compound was diissolved in 0.25 ml of a physiological saline solution and the solution of the test compound so prepared was intravenously administered into a series of mouse groups each consisting of six mice (ICR strain, adult female, body weight 20 g±0.5 g) as the test animal, […] Acute toxicity of 3-O-demethylistamycin B was also estimated in the same manner as above for the comparison purpose. […]

Data set [17] concerns gram-negative and gram-positive bacteria, including Pseudomonas aeruginosa. The following applies: cited earlier filings; cited from earlier work.

Converted amounts (≈) assume the structure as drawn.

With “3-O-demethylistamycin B-tri-N-methanesulfonic acid sodium salt [Compound (3)]”, the Minimum inhibitory concentration in [1] came to 6.25 µg/mL; in [2] it was 3.13 µg/mL; in [3] it was 0.78 µg/mL; in data set [4], 12.5 µg/mL; in [5], 12.5 µg/mL; in data set [6], 6.25 µg/mL. The Minimum inhibitory concentration is 12.5 µg/mL in [7], 0.78 µg/mL in data set [8] and 1.56 µg/mL in [9].
On to “3-O-demethylistamycin B-tetra-N-methanesulfonic acid sodium salt [Compound (4)]”, for which the Minimum inhibitory concentration was found to be 25 µg/mL in [1]; 12.5 µg/mL in data set [10] (Escherichia coli K-12 LA290 R55, Mueller-Hinton agar, 37° C., 17 hours); 25 µg/mL in data set [11] (Escherichia coli K-12 R5, Mueller-Hinton agar, 37° C., 17 hours); 6.25 µg/mL in [2]; 1.56 µg/mL in [3]; 25 µg/mL in data set [4]. Further, the Minimum inhibitory concentration worked out at 25 µg/mL in data set [5]; 25 µg/mL in data set [6]; 25 µg/mL in data set [7]; 1.56 µg/mL in data set [8]; 3.13 µg/mL in data set [9].
On to “3-O-demethylistamycin B-di-N-methanesulfonic acid sodium salt [Compound (2)]”, for which the Minimum inhibitory concentration is 6.25 µg/mL in data set [1]; 3.13 µg/mL in data set [2]; 3.13 µg/mL in data set [3]; 6.25 µg/mL in [4]; 12.5 µg/mL in [5]; 6.25 µg/mL in data set [6]. Further, the Minimum inhibitory concentration is 12.5 µg/mL in data set [7], 1.56 µg/mL in data set [8] and 1.56 µg/mL in [9].
By LD50 is commonly meant the dose expected to kill half of the subjects tested. Low readings indicate greater toxicity, high ones lower toxicity. For `CNCC1CCC(N)C(OC2C(N)CC(O)C(N(C)C(=O)CN)C2O)O1` (centres unmarked) [3-O-demethylistamycin B], the MIC in data set [12] was 0.78 µg/mL (≈ 2.08 µM); in [1] (Escherichia coli, JR66/W677, 17 h, read-out: Minimum inhibitory concentration), 1.56 µg/mL (≈ 4.15 µM); in data set [13], 1.56 µg/mL (≈ 4.15 µM); in data set [10] (Escherichia coli, K12LA290R55, 17 h, read-out: Minimum inhibitory concentration), 0.78 µg/mL (≈ 2.08 µM); in data set [14], 1.56 µg/mL (≈ 4.15 µM); in [11] (Escherichia coli, K12R5, 17 h, read-out: Minimum inhibitory concentration), 3.13 µg/mL (≈ 8.34 µM). For the same molecule, the MIC was 0.78 µg/mL (≈ 2.08 µM) in data set [15]; 0.78 µg/mL (≈ 2.08 µM) in [2] (PV16, 37° C.); 0.2 µg/mL (≈ 0.533 µM) in [3] (Pseudomonas aeruginosa, A3, 17 h, read-out: Minimum inhibitory concentration); 6.25 µg/mL (≈ 16.6 µM) in data set [4] (Pseudomonas aeruginosa, GN315, 17 h, read-out: Minimum inhibitory concentration); 12.5 µg/mL (≈ 33.3 µM) in [5]; 6.25 µg/mL (≈ 16.6 µM) in [6] (Pseudomonas aeruginosa, TI13, 17 h, read-out: Minimum inhibitory concentration). Also, the MIC in [7] (17 h, read-out: Minimum inhibitory concentration) stood at 1.56 µg/mL (≈ 4.15 µM); in data set [8] it was 0.39 µg/mL (≈ 1.04 µM); in data set [9] it was 0.39 µg/mL (≈ 1.04 µM). Besides, the death of mice result in [16] (320 mg/kg, within 24 hours) is “all mice died within 24 hours”. The same molecule showed an LD50 in [16] (mouse, in vivo, adult female) of 160 to 320 mg/kg. The antibacterial activity entry in [17] is reported as “high antibacterial activity”.
In the case of “3-O-demethylistamycin B-mono-N-methanesulfonic acid sodium salt [Compound (1)]”, the Minimum inhibitory concentration in data set [1] stood at 6.25 µg/mL; in data set [2], 3.13 µg/mL; in data set [3] it was 0.78 µg/mL; in [4], 12.5 µg/mL; in data set [5], 12.5 µg/mL; in data set [6], 6.25 µg/mL. The Minimum inhibitory concentration amounted to 6.25 µg/mL in data set [7], 0.78 µg/mL in data set [8] and 1.56 µg/mL in [9].
